Data on five compounds can be found in article PMC6943619, “Synthesis and Pharmacological Evaluation of Hybrids Targeting Opioid and Neurokinin Receptors” (Molecules, 2019).

Test [1] deals with T1, human NK1 (Homo sapiens, UniProt P25103). In words: Calcium mobilization functional assay, agonist mode, CHONK1 cells. In kind it is cell-based. Further details: expressed in transfected cells; host or cells: CHO cells (gift of Prof. T. Costa, ISS, Rome). As to conditions: for NK1 α ± SEM: efficacy (intrinsic activity), Emax relative to SP. On the technique in general: Calcium flux is commonly read through the fluorescence of an indicator in the cells.

Test [2] has as its target T2, human opioid receptor KOR (Homo sapiens, UniProt P41145).
T2 construct: purchased PerkinElmer (Krakow, Poland); host or cells: CHO cell membranes
In words: Radioligand binding assay, displacement of [3H]U-69593. As to conditions: displacement of [3H]U-69593 from membranes of CHO cells transfected with human KOR, 50 mM Tris/HCl pH 7.4, 0.5% BSA, peptidase inhibitors, 2 h at 25 °C, mean ± SEM, n ≥ 3. Here is the method:
(§1) A radioligand binding assay was performed to determine the opioid receptor (OR) binding affinities of the novel analogs using commercially available membranes of Chinese hamster ovary cells (CHO) transfected with human recombinant ORs. [^3H]DAMGO, [^3H]deltorphin-2, and [^3H]U-69593 were used as the radioligands for MOR, DOR, and KOR, respectively. Tyr-[D-Lys-Phe-Phe-Asp]NH2 (1) was used as a reference opioid compound. […] None of them acquired significant DOR affinity.
(§2) To determine the affinity of peptide analogs to respective receptors, competition binding experiments were performed, as described in detail elsewhere.
(§3) Commercial membranes of CHO cells stably expressing either human ORs or NK1 receptor were used. [^3H]DAMGO, [^3H]deltorphin-2, and [^3H]U-69593 were employed as the competing radioligands for MOR, DOR, and KOR, respectively, while [^3H][Sar^9, Met(O2)^11]SP was utilized for the NK1 receptor. Membranes were incubated in a 0.5 mL volume of 50 mM Tris/HCl (pH = 7.4), 0.5% bovine serum albumin (BSA), with a number of peptidase inhibitors (bacitracin, bestatin, captopril) and various concentrations of radioligands for 2 h at 25 °C. Nonspecific binding was assessed in the presence of […] naloxone for ORs or SP for NK1 receptor.
(§4) The pharmacological terminology adopted in this paper is consistent with International Union of Basic and Clinical Pharmacology (IUPHAR) recommendations. Concentration–response curves were analyzed by nonlinear regression using Graph Pad Prism 6.0 (La Jolla, CA, USA). […]. […] Concentration–response curves were fitted with the four-parameter logistic nonlinear regression model (1) Effect=baseline+Emax−baseline/1+10^logEC50−X·n where X is the agonist concentration and n is the Hill coefficient. Ligand efficacy was expressed as intrinsic activity (α) calculated as a ratio of the peptide Emax to the Emax of the standard agonist (Supplementary Materials, Figure S7). […]. All statistical analyses were performed using Graph Pad Prism 6.0 (La Jolla, CA, USA). Differences between groups were analyzed with one-way ANOVA and a post hoc multiple comparison by the Student–Newman–Keuls test. A probability level of 0.05 or smaller was used to indicate statistical significance.
(In general: In a radioligand displacement assay an active substance lowers the binding of a labelled ligand.)

The target in test [3] is T3, human opioid receptor DOR (Homo sapiens, UniProt P41143).
T3 construct: purchased PerkinElmer (Krakow, Poland); host or cells: CHO cell membranes
Nature of the test: Radioligand binding assay, displacement of [3H]deltorphin-2. As to conditions: displacement of [3H]deltorphin-2 from membranes of CHO cells transfected with human DOR, 50 mM Tris/HCl pH 7.4, 0.5% BSA, peptidase inhibitors, 2 h at 25 °C, mean ± SEM, n ≥ 3. Here is the method: A radioligand binding assay was performed to determine the opioid receptor (OR) binding affinities of the novel analogs using commercially available membranes of Chinese hamster ovary cells (CHO) transfected with human recombinant ORs. […] Tyr-[D-Lys-Phe-Phe-Asp]NH2 (1) was used as a reference opioid compound.
as §2
(§5) Commercial membranes of CHO cells stably expressing either human ORs or NK1 receptor were used. […] Membranes were incubated in a 0.5 mL volume of 50 mM Tris/HCl (pH = 7.4), 0.5% bovine serum albumin (BSA), with a number of peptidase inhibitors (bacitracin, bestatin, captopril) and various concentrations of radioligands for 2 h at 25 °C.
(§6) The pharmacological terminology adopted in this paper is consistent with International Union of Basic and Clinical Pharmacology (IUPHAR) recommendations. Concentration–response curves were analyzed by nonlinear regression using Graph Pad Prism 6.0 (La Jolla, CA, USA). […] Concentration–response curves were fitted with the four-parameter logistic nonlinear regression model (1) Effect=baseline+Emax−baseline/1+10^logEC50−X·n where X is the agonist concentration and n is the Hill coefficient. Ligand efficacy was expressed as intrinsic activity (α) calculated as a ratio of the peptide Emax to the Emax of the standard agonist (Supplementary Materials, Figure S7). […] All statistical analyses were performed using Graph Pad Prism 6.0 (La Jolla, CA, USA). Differences between groups were analyzed with one-way ANOVA and a post hoc multiple comparison by the Student–Newman–Keuls test. A probability level of 0.05 or smaller was used to indicate statistical significance.

Test [4] concerns the target T4, DOR (Homo sapiens, UniProt P41143).
T4 construct: expressed in transfected cells; host or cells: CHO cells (University of Ferrara), co-expressing GαqG66Di5
Nature of the test: Calcium mobilization functional assay, agonist mode. In kind it is cell-based. As to conditions: CHO cells co-expressing DOR and GαqG66Di5, n = 5; for DOR α ± SEM: efficacy (intrinsic activity), Emax relative to DPDPE, mean ± SEM; for EC50: read-out: DOR pEC50 (CL95%) (converted).

Test [5] concerns the target T1, human NK1. In words: Radioligand binding assay, displacement of [3H][Sar9, Met(O2)11]SP. Also on record: purchased PerkinElmer (Krakow, Poland); host or cells: CHO cell membranes. To be noted: displacement of [3H][Sar9, Met(O2)11]SP from membranes of CHO cells transfected with human NK1 receptor; 50 mM Tris/HCl pH 7.4, 0.5% BSA, peptidase inhibitors, 2 h at 25 °C; mean ± SEM, n ≥ 3; SEM. Here is the method:
The binding assay was also used to examine the affinity of the synthesized hybrids for NK1 in commercial membranes of CHO cells stably expressing human NK1.
as §2, §5, §6

For test [6], the target named is T1, human NK1. In words: Calcium mobilization assay, inhibition response experiments against SP. In kind it is cell-based. Further details: expressed in transfected cells; host or cells: CHO cells (gift of Prof. T. Costa, ISS, Rome). The protocol:
Following aspiration of the loading solution and a washing step, serial dilutions of peptide stock solutions were added.
as §6

Test [7] deals with T5, human KOR (Homo sapiens, UniProt P41145).
T5 construct: expressed in transfected cells; host or cells: CHO cells (University of Ferrara), co-expressing Gαqi5
Nature of the test: Calcium mobilization functional assay, agonist mode. In kind it is cell-based. To be noted: for KOR α ± SEM: efficacy (intrinsic activity), Emax relative to dynorphin A, mean ± SEM.

In test [8] the target is T6, human opioid receptor MOR (Homo sapiens, UniProt P35372).
T6 construct: purchased PerkinElmer (Krakow, Poland); host or cells: CHO cell membranes
In words: Radioligand binding assay, displacement of [3H]DAMGO. As to conditions: displacement of [3H]DAMGO from membranes of CHO cells transfected with human MOR, 50 mM Tris/HCl pH 7.4, 0.5% BSA, peptidase inhibitors, 2 h at 25 °C, mean ± SEM, n ≥ 3. The protocol:
as §1, §2, §3, §4

Test [9] has as its target T7, human MOR (Homo sapiens, UniProt P35372).
T7 construct: expressed in transfected cells; host or cells: CHO cells (University of Ferrara), co-expressing Gαqi5
In words: Calcium mobilization functional assay, agonist mode. In kind it is cell-based. To be noted: CHO cells co-expressing human MOR and Gαqi5, n = 5; for EC50: Fluo-4 AM calcium signal, read-out: MOR pEC50 (CL95%) (converted); for MOR α ± SEM: efficacy (intrinsic activity), Emax relative to EM-2, mean ± SEM.

[10] abbreviates: CHO cells co-expressing human KOR and Gαqi5, Fluo-4 AM calcium signal, n = 5, read-out: KOR pEC50 (CL95%) (converted).
[11] abbreviates: CHO cells co-expressing human KOR and Gαqi5, n = 5.

Read-outs that look alike come from different tables or passages of the source. Where a SMILES comes first, the peptide text is derived from it. Bridges are numbered along the chain shown (N, C = ends). [ ]: non-standard residue; d: D form. Nle = CCCC[C@H](N)C(=O)O

T7 sequence (P35372 whole entry): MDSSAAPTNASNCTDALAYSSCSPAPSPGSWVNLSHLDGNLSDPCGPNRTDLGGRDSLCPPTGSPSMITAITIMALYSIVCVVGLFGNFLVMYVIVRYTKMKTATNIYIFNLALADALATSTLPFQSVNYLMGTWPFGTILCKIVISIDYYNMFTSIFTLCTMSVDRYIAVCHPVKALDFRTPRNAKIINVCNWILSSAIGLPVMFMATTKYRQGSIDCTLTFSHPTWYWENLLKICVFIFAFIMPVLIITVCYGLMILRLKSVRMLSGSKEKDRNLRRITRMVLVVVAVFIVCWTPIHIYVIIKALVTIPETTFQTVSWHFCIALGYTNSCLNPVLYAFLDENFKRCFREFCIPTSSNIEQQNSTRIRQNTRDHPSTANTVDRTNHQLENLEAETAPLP
T6 sequence (P35372 whole entry): as above
T3 sequence (P41143 whole entry): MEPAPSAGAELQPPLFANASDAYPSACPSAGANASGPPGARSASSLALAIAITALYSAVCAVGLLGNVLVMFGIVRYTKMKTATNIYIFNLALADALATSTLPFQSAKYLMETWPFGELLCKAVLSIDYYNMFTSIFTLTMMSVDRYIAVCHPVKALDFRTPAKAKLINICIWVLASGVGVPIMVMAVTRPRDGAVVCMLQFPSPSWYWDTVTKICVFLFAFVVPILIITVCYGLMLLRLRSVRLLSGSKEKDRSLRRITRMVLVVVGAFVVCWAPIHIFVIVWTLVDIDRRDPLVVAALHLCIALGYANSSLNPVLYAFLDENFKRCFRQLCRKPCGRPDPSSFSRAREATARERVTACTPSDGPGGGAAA
T4 sequence (P41143 whole entry): as above
T5 sequence (P41145 whole entry): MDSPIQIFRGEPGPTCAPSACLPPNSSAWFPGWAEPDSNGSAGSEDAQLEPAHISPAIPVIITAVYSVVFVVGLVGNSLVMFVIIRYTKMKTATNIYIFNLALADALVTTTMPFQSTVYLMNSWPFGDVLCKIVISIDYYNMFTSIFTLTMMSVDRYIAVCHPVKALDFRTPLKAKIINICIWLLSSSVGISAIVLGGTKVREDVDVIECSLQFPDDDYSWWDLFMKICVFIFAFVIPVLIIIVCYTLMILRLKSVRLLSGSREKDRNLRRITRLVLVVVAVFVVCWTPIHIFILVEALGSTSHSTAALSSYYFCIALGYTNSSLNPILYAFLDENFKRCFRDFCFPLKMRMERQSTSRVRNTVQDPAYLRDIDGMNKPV
T2 sequence (P41145 whole entry): as above
T1 sequence (P25103 whole entry): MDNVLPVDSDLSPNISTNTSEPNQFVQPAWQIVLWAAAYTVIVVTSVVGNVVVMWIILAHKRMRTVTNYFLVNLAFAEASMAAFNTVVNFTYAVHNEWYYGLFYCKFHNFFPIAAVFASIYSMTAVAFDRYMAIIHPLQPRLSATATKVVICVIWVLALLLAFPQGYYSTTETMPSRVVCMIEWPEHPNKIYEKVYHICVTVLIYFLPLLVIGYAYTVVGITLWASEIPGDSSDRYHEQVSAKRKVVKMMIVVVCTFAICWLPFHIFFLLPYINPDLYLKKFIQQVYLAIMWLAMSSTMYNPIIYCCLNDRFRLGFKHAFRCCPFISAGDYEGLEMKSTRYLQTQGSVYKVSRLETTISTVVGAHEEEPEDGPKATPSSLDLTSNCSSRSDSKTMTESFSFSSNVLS

For the compound `C[C@@H](O[C@H]1OCCN(Cc2n[nH]c(=O)[nH]2)[C@H]1c1ccc(F)cc1)c1cc(C(F)(F)F)cc(C(F)(F)F)c1` [aprepitant, reference compound], the “effect per se on intracellular calcium levels (tested as an agonist)” value in [1] (CHONK1 cells, up to 10 µM) is “did not modify”.
For the compound `CCCC[C@H](NC(=O)[C@H](CC(C)C)NC(=O)[C@@H](Cc1c[nH]c2ccccc12)NC(=O)[C@H](Cc1ccccc1)NC(=O)[C@@H](Cc1c[nH]c2ccccc12)NC(=O)[C@@H]1CC(=O)NCCCC[C@@H](NC(=O)[C@@H](N)Cc2ccc(O)cc2)C(=O)N[C@@H](Cc2ccccc2)C(=O)N[C@@H](Cc2ccccc2)C(=O)N1)C(N)=O` [compound 3, Tyr-[D-Lys-Phe-Phe-Asp]-D-Trp-Phe-D-Trp-Leu-Nle-NH2] (H-Y[dK]FFD[dW]F[dW]L[Nle]-NH2; lactam 2-5), the Ki (usually the dissociation constant of the complex between target and ligand, obtained from inhibition or displacement) is 2.85 ± 0.44 nM in test [2], 213 ± 6.31 nM in test [3], 12.8 ± 0.92 nM in [5] and 28.2 ± 1.45 nM in test [8]. For the same compound, the “DOR pEC50 (CL95%)” value in test [4] (Fluo-4 AM calcium signal) is reported as “Crc incomplete”. The “DOR α ± SEM” value in test [4] is “Crc incomplete”. In [6], the Kb was 23.4 nM. Further, the EC50 is 3.55 nM in test [7] (setting [10]) and 174 nM in test [9]. Further, the “KOR α ± SEM” value in test [7] (setting [11]) was determined as 1.05 ± 0.05. Moreover, in test [1] (CHO cells expressing human NK1 (CHONK1), Fluo-4 AM calcium signal, N = 5), the “NK1 pEC50 (CL95%)” value was “Inactive”. Also, the “NK1 α ± SEM” value in [1] (CHONK1 cells, N = 5) is “Inactive”. Also, the “MOR α ± SEM” value in test [9] is on record as 0.72; in test [9] (SEM), 0.72 ± 0.04.
Consider `CSCC[C@H](NC(=O)[C@H](CC(C)C)NC(=O)CNC(=O)[C@H](Cc1ccccc1)NC(=O)[C@@H]1CC(=O)NCCCC[C@@H](NC(=O)[C@@H](N)Cc2ccc(O)cc2)C(=O)N[C@@H](Cc2ccccc2)C(=O)N[C@@H](Cc2ccccc2)C(=O)N1)C(N)=O` [compound 6, Tyr-[D-Lys-Phe-Phe-Asp]-Phe-Gly-Leu-Met-NH2] (H-Y[dK]FFDFGLM-NH2; lactam 2-5), for which the Ki in [2] was 2.7 ± 0.12 nM; in test [3], 28.7 ± 1.01 nM; in [5], 2330 ± 189 nM; in test [8], 2.98 ± 0.14 nM. Besides, the EC50 in test [4] (Fluo-4 AM calcium signal) was 151 nM; in [7] (setting [10]) it was 4.68 nM; in test [1], 776 nM; in test [9], 9.12 nM. For the same compound, in test [4] (SEM), the “DOR α ± SEM” value was found to be 0.65 ± 0.05. Further, the “KOR α ± SEM” value in test [7] (setting [11]) was found to be 0.92 ± 0.02. For the same compound, the “NK1 α ± SEM” value in test [1] (CHONK1 cells, N = 5, SEM) worked out at 1.03 ± 0.05. For the same compound, the “MOR α ± SEM” value in test [9] (SEM) is recorded as 0.81 ± 0.05.
Take `CSCC[C@H](NC(=O)[C@H](CC(C)C)NC(=O)CNC(=O)[C@H](Cc1ccccc1)NC(=O)[C@H](Cc1ccccc1)NC(=O)[C@@H]1CC(=O)NCCCC[C@@H](NC(=O)[C@@H](N)Cc2ccc(O)cc2)C(=O)N[C@@H](Cc2ccccc2)C(=O)N[C@@H](Cc2ccccc2)C(=O)N1)C(N)=O` [compound 5, Tyr-[D-Lys-Phe-Phe-Asp]-Phe-Phe-Gly-Leu-Met-NH2] (H-Y[dK]FFDFFGLM-NH2; lactam 2-5): the Ki in test [2] was determined as 28.3 ± 1.71 nM; in test [3] it was 96.6 ± 3.8 nM; in test [5] it was 51.6 ± 4.2 nM; in [8], 4.9 ± 0.34 nM. For the same compound, the EC50 was 389 nM in test [4] (Fluo-4 AM calcium signal), 67.6 nM in [7] and 15.8 nM in [1]. For the same compound, the “DOR α ± SEM” value in test [4] (SEM) is reported as 0.50 ± 0.01. Moreover, the “KOR α ± SEM” value in [7] (setting [11]) is listed as 0.64 ± 0.04. Also, in test [1] (CHONK1 cells, N = 5, SEM), the “NK1 α ± SEM” value is 1.11 ± 0.05. For the same compound, in test [9] (SEM), the “MOR α ± SEM” value worked out at 0.86 ± 0.03.
In the case of `CSCC[C@H](NC(=O)[C@H](CC(C)C)NC(=O)CNC(=O)[C@@H]1CC(=O)NCCCC[C@@H](NC(=O)[C@@H](N)Cc2ccc(O)cc2)C(=O)N[C@@H](Cc2ccccc2)C(=O)N[C@@H](Cc2ccccc2)C(=O)N1)C(N)=O` [compound 7, Tyr-[D-Lys-Phe-Phe-Asp]-Gly-Leu-Met-NH2] (H-Y[dK]FFDGLM-NH2; lactam 2-5), the Ki stood at 0.89 ± 0.04 nM in test [2], 113 ± 4.6 nM in test [3], 8130 ± 724 nM in test [5] and 1.14 ± 0.21 nM in [8]. For the same compound, the EC50 in test [4] (Fluo-4 AM calcium signal) was 363 nM; in test [7] (setting [10]) it was 1.58 nM; in test [1], 2090 nM; in test [9] it was 2.04 nM. For the same compound, in [4] (SEM), the “DOR α ± SEM” value amounted to 0.38 ± 0.04. In test [7] (setting [11]), the “KOR α ± SEM” value stood at 1.06 ± 0.06. For the same compound, the “NK1 α ± SEM” value in test [1] (CHONK1 cells, N = 5, SEM) is given as 0.99 ± 0.08. Also, in [9] (SEM), the “MOR α ± SEM” value turned out to be 0.85 ± 0.05.
